The record followed here is patent US12318368B2, “Physics-driven discovery of novel small therapeutic compounds for use as a BCL-2 inhibitor” (BAHCESEHIR UNIVERSITESI, priority 2020, dated 2025).

The assay has as its system HCT-116 cell lines. Nature of the assay: MTT cell proliferation assay. In kind it is cell-based. The procedure:
For cell culture experiments various cancer cell lines, HCT-116 colon cancer, U87-MG glial tumor, MCF7 breast cancer cell lines were used. Cells were seeded with high glucose DMEM medium (Biosera) supplemented with 10% FBS (Gibco) and 1× penicillin/streptomycin (Multicell). Twenty-four hours prior to molecule treatment, 10,000 cells were seeded into each well of 24-well cell culture plates. Molecules were used by preparing 4 mM stock solution in DMSO (Amresco). For molecule treatment, molecule stock solutions were diluted in DMEM with 10% FBS and added onto cells in each corresponding well. Final concentration of vehicle DMSO was 2% at maximum. […] We calculated the number of cells to be seeded to make sure that none of the cells reaches more than 60% confluency during the treatment period, as higher plate confluency levels would slow down cell proliferation independently from the molecule treatment.
Values of half-maximal inhibitory concentration were (IC50) determined by MTT cell proliferation assays. […] 570 nm absorbance values were recorded and IC50 values were calculated by dose response—inhibition curves and nonlinear regression analysis on GraphPad Prism 8 software. […] Following the initial incubation day, molecules were added and after incubation with MTT at 37° C. for 4 hours, formazan was solubilized with DMSO (Sigma-Aldrich, St. Louis, USA) and absorbance was measured at 570 nm. […]

As for `COCCN1C(=O)/C(=C/c2ccc(OCC(=O)Nc3ccc(C)cc3)cc2)S/C1=N\c1ccccc1` [compound of formula I], where the note is “HCT-116 cells, compared with vehicle (max 2% DMSO)”, the “proliferation of the HCT-116 cells versus vehicle group (FIG. 1)” value was “reduced proliferation and apoptotic cell structures”. In addition, under “Homo sapiens, 72 h, HCT-116 colon cancer cells, MTT, single treatment, three days results, absorbance 570 nm, read-out: IC50 (half-maximal inhibitory concentration)”, the IC50 is 25 µM.
